Assay results published in US20200288710A1, “SUBSTITUTED SULPHONAMIDES FOR CONTROLLING ANIMAL PESTS” (BAYER CROPSCIENCE AKTIENGESELLSCHAFT, priority 2016, published 2020).

Assays:
Format in all cases: in vivo
Meloidogyne incognita = Meloidogyne incognita test; settings: 336 h, lettuce, after 14 days, read-out: nematicidal efficacy (formation of galls)
Method in brief: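 Gall formation on lettuce roots scored after 14 days: 0% means gall count equals untreated control, 100% means none. Sand vessels held the compound (acetone concentrate diluted in water), southern root-knot nematode egg/larvae suspension and lettuce seeds.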

Myzus persicae [1] = assay: Myzus persicae spray test (Chinese cabbage leaf discs); settings: foliar, 120 h, after 5-6 days, read-out: efficacy
Method in brief: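 Formulated compound in acetone/dimethylformamide, diluted in water with 1000 ppm emulsifier, was sprayed onto Brassica pekinensis leaf discs carrying mixed-stage Myzus persicae. Percent mortality was read 5-6 days later (0% = no aphids killed, 100% = all killed).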

Myzus persicae [2] = assay: Myzus persicae oral test; settings: 120 h, 20 ppm, oral uptake, after 5 days, read-out: efficacy
Method in brief: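 Aphids of mixed ages imbibe, through parafilm, compound solution (acetone stock, water-diluted) combined with sugar-supplemented IPL41 medium to 200 μl. Efficacy read at day 5 as percent killed, 0% meaning no deaths.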

SMILES	pest or weed control at 20 ppm (Meloidogyne incognita)	pest or weed control at 500 g/ha (Myzus persicae [1])	pest or weed control at 20 ppm (Myzus persicae [2])	pest or weed control at 100 g/ha (Myzus persicae [1]; 100 g/ha)
Cc1c(C(=O)NS(=O)(=O)c2ccccc2)nc(-c2ccccc2Cl)n1C [Example 39]	90%	90%	90%	–
CC(C)S(=O)(=O)NC(=O)c1cn(C)c(-c2c(Cl)cccc2Cl)n1 [Example 81]	100%	90%	90%	–
Cn1cc(C(=O)NS(=O)(=O)c2cccc(Cl)c2)nc1-c1c(F)cccc1Cl [Example 113]	100%	90%	100%	–
Cc1cc(C(=O)NS(=O)(=O)c2ccccc2Cl)nn1-c1ncccc1Br [Example 295]	90%	100%	100%	–
Cc1cc(C(=O)NS(=O)(=O)c2ccccc2Br)nn1-c1ncccc1Br [Example 296]	90%	90%	90%	–
Cc1noc(C)c1S(=O)(=O)NC(=O)c1cn(C)c(-c2c(F)cccc2F)n1 [Example 358]	90%	100%	100%	–
CCc1ccc(C)c(S(=O)(=O)NC(=O)c2cn(C)c(-c3c(F)cccc3F)n2)c1 [Example 395]	90%	100%	90%	–
CCc1ccccc1S(=O)(=O)NC(=O)c1cn(C)c(-c2cccc3ccccc23)n1 [Example 503]	90%	90%	100%	–
Cn1cc(C(=O)NS(=O)(=O)c2sc(Cl)cc2Br)nc1-c1ccccc1Cl [Example 426]	90%	100%	100%	–
Cn1nc(C(=O)NS(=O)(=O)c2ccccc2Br)nc1-c1c(F)cccc1F [Example 158]	90%	100%	100%	–
COc1cccc(OC)c1S(=O)(=O)NC(=O)c1cn(C)c(-c2c(F)cccc2F)n1 [Example 378]	90%	–	100%	90%
Cc1cc(S(=O)(=O)NC(=O)c2cn(C)c(-c3c(F)cccc3F)n2)c(C)s1 [Example 182]	100%	90%	100%	–
Cn1cc(C(=O)NS(=O)(=O)c2cccc3ccn(C)c23)nc1-c1c(F)cccc1F [Example 323]	90%	100%	100%	–
Cn1cc(C(=O)NS(=O)(=O)Cc2ccccc2Cl)nc1-c1ccccc1Cl [Example 62]	90%	90%	100%	–
Cc1cc(F)ccc1S(=O)(=O)NC(=O)c1cn(C)c(-c2c(F)cccc2F)n1 [Example 444]	100%	90%	100%	–
Cn1cc(C(=O)NS(=O)(=O)c2ccccc2Cl)nc1-c1ccccc1Cl [Example 225]	80%	100%	100%	–
Cn1cc(C(=O)NS(=O)(=O)c2ccccc2Cl)nc1-c1ncccc1F [Example 499]	90%	100%	100%	–
Cn1cc(C(=O)NS(=O)(=O)c2ccccc2)nc1-c1c(Cl)cccc1Cl [Example 44]	100%	90%	90%	–
Cn1cc(C(=O)NS(=O)(=O)c2c(F)cccc2C(F)(F)F)nc1-c1c(F)cccc1F [Example 371]	90%	90%	100%	–
Cc1cc(C(=O)NS(=O)(=O)c2ccccc2Cl)nn1-c1ccccc1Cl [Example 271]	100%	100%	100%	–
Cc1ccccc1-c1nc(C(=O)NS(=O)(=O)c2ccccc2C)cn1C [Example 29]	90%	100%	100%	–
Cn1cc(C(=O)NS(=O)(=O)c2cccc(Cl)c2)nc1-c1c(F)cccc1F [Example 45]	100%	90%	90%	–
COc1ccccc1S(=O)(=O)NC(=O)c1cn(C)c(-c2cccc(F)c2F)n1 [Example 528]	90%	100%	100%	–
Cc1c(C(=O)NS(C)(=O)=O)nc(-c2ccccc2Cl)n1C [Example 71]	90%	90%	100%	–
CCc1ccsc1S(=O)(=O)NC(=O)c1cn(C)c(-c2c(F)cccc2F)n1 [Example 419]	90%	100%	100%	–

SMILES	pest or weed control at 20 ppm (Meloidogyne incognita)	pest or weed control at 500 g/ha (Myzus persicae [1])	pest or weed control at 20 ppm (Myzus persicae [2])	pest or weed control at 100 g/ha (Myzus persicae [1]; 100 g/ha)
Cc1ccsc1S(=O)(=O)NC(=O)c1cn(C)c(-c2c(F)cccc2F)n1 [Example 184]	100%	90%	100%	–
CCSc1cccc(Cl)c1S(=O)(=O)NC(=O)c1cn(C)c(-c2c(F)cccc2F)n1 [Example 179]	90%	90%	100%	–
Cc1ccccc1S(=O)(=O)NC(=O)c1cn(C)c(-c2cc(F)ccc2F)n1 [Example 520]	100%	90%	100%	–
Cn1cc(C(=O)NS(=O)(=O)c2c(Cl)cccc2C(F)(F)F)nc1-c1ncccc1Cl [Example 600]	100%	100%	100%	–
Cn1cc(C(=O)NS(=O)(=O)c2ccccc2Br)nc1-c1c(F)cccc1F [Example 119]	90%	100%	100%	–
Cn1cc(C(=O)NS(=O)(=O)c2ccc(F)cc2Br)nc1-c1c(F)cccc1F [Example 438]	90%	100%	90%	–
Cn1cc(C(=O)NS(=O)(=O)c2ccccc2OC(F)(F)F)nc1-c1c(F)cccc1F [Example 118]	90%	100%	100%	–
Cc1cc(C(=O)NS(=O)(=O)c2ccccc2Br)nn1-c1c(F)cccc1F [Example 257]	90%	90%	100%	–
Cn1cc(C(=O)NS(=O)(=O)c2ccc(Br)cc2F)nc1-c1c(F)cccc1F [Example 437]	90%	100%	100%	–
Cn1nc(C(=O)NS(=O)(=O)c2c(Cl)cccc2Cl)nc1-c1c(F)cccc1F [Example 13]	90%	100%	100%	–
Cn1cc(C(=O)NS(=O)(=O)c2c(Cl)cc(Cl)cc2Cl)nc1-c1c(F)cccc1F [Example 435]	90%	100%	100%	–
COc1cccc(C)c1S(=O)(=O)NC(=O)c1cn(C)c(-c2c(F)cccc2F)n1 [Example 365]	90%	100%	–	–
CC(C)CS(=O)(=O)NC(=O)c1cn(C)c(-c2c(F)cccc2F)n1 [Example 142]	90%	100%	–	–
COc1ccc(S(=O)(=O)NC(=O)c2cn(C)c(-c3ccccc3Cl)n2)cc1 [Example 34]	100%	90%	–	–
CCOc1ccccc1S(=O)(=O)NC(=O)c1cn(C)c(-c2c(F)cccc2F)n1 [Example 16]	90%	90%	–	–
CCn1cc(C(=O)NS(C)(=O)=O)nc1-c1ccccc1Cl [Example 79]	90%	100%	–	–
COc1ccc(Cl)c(S(=O)(=O)NC(=O)c2cn(C)c(-c3ccccc3Cl)n2)c1 [Example 228]	100%	100%	–	–
CCS(=O)(=O)NC(=O)c1cn(C)c(-c2ccccc2Cl)n1 [Example 64]	90%	90%	–	–
CCOc1cccc(CC)c1S(=O)(=O)NC(=O)c1cn(C)c(-c2c(F)cccc2F)n1 [Example 335]	90%	90%	–	–
Cc1ccc(S(=O)(=O)NC(=O)c2cn(C)c(-c3c(F)cccc3F)n2)cc1 [Example 175]	100%	90%	–	–
CCc1[nH]c(-c2ccc(F)c(F)c2)nc1C(=O)NS(=O)(=O)c1ccccc1C [Example 207]	90%	90%	–	–
Cn1cc(C(=O)NS(=O)(=O)c2ccc(Cl)cc2)nc1-c1c(F)cc(F)cc1F [Example 9]	100%	90%	–	–
Cc1ccccc1S(=O)(=O)NC(=O)c1cn(C)c(-c2c(F)cc(F)cc2F)n1 [Example 6]	100%	100%	–	–
COc1ccccc1S(=O)(=O)NC(=O)c1nc(-c2c(F)cccc2F)c(C)n1C [Example 310]	100%	90%	–	–
